Data from US9359399B2, “Synthetic peptide amides” (Cara Therapeutics, Inc., priority 2006, dated 2016).
Square brackets hold non-standard residues; d marks the D form. Peptide text beside a SMILES is read from it. * marks the point of attachment. Piperidinyl(4-(1-Pro-OH)) = O=C(O)[C@@H]1CCCN1C1CCN(*)CC1; dDab = NCC[C@@H](N)C(=O)O

Legend:
[1] = in vitro; conditions: human, Caco-2
[2] = test system: capsaicin-induced ocular pain; experiment: Capsaicin-induced ocular pain, palpebral opening in rabbits; format: in vivo, albino New Zealand strain rabbits; conditions: 10-30 min. post capsaicin
[3] = test system: CYP1A; experiment: Cytochrome P450 CYP1A inhibition in human liver microsomes (ethoxyresorufin); format: in vitro ADME; conditions: percent remaining CYP activity, 10 uM test compound, 15 minutes
Method: Inhibition of cytochrome P450 oxidase isozymes CYP1A, CYP2C9, CYP2C19, CYP2D6 and CYP3A4 by synthetic peptide amide compounds of the invention was determined according to the following methods performed by Cerep (Seattle, Wash.):
In the cytochrome P450 CYP1A assay, human liver microsomes (0.2 mg/ml protein) were incubated for 15 minutes at 37° C. with 10 uM test compound, 1 uM ethoxyresorufin, 1.3 mM NADP, 3.3 mM glucose-6-phosphate and 0.4 U/ml glucose-6-phosphate dehydrogenase. In the absence of test compound, the ethoxyresorufin added as substrate is oxidized to resorufin, and in the presence of an inhibitor of the CYP isozyme, the amount of resorufin produced is reduced. Furafylline was used as a reference inhibitor.
In each assay, the percent inhibition of the cytochrome P450 CYP P450 isozyme was determined as one hundred times the ratio of (1—the amount of product in the sample in the presence of the test compound) divided by the amount of product in the sample containing untreated isozyme.

[4] = test system: acetic acid-induced writhing in mice; experiment: Acetic acid-induced writhing assay in mice; format: in vivo, ICR mice; conditions: ICR mice, administered subcutaneously
Method: 12: 525-562; Ramabadran and Bansinath (1986) Pharm. Res. 3: 263-270]. Intraperitoneal administration of dilute acetic acid solution causes a writhing behavior in mice. A writhe is defined as a contraction of the abdominal muscles accompanied by an extension of the forelimbs and elongation of the body. The number of writhes observed in the presence and absence of test compounds is counted to determine the analgesic activity of the compounds.
Each day a writhing assay was performed, a vehicle control group of mice (n=6-8) that were treated identically to the test group (except that test compound was omitted from the injection dose) was always included and the average total number of writhes in this group used as the absolute reference point defining 0% decrease in pain perception for all other mice receiving a test compound on that day. Specifically, the total number of writhes of each mouse receiving the test compound was converted to % decrease in pain perception according to the following equation:
[formula] Where Wv is the mean number of writhes in vehicle-treated group and Wc is the number of writhes in compound-treated mouse.
Male ICR mice, 23-37 grams in weight, were weighed and placed in individual observation chambers (usually a 4000 ml glass beaker) with a fine layer of SANI-CHIPS rodent bedding at the bottom. […] After administration of the compound or vehicle control, mice were returned to their individual observation chambers awaiting the intraperitoneal administration of acetic acid solution. […] and acetic acid injection, a dose corresponding to 10 ml/kg of a 0.6% (v/v) acetic acid solution was then injected into the right lower quadrant of the abdomen. Immediately after the injection, the mouse was returned to its observation chamber and the recording of the number of writhes begun immediately. The number of writhes was counted over a 15-min period starting from the time of acetic acid injection, the data being collected over three separate 5 minute time periods (0-5 min, 5-10 min, and 10-15 min).
The data were reported as ED50, and Hill coefficient. […] The Hill coefficient is expressed as the arithmetic mean±sem calculated from the values obtained from the animals.
For dose-response analysis, raw data were converted to % maximum possible effect (% MPE) using the formula: % MPE=((test score−vehicle-treated score)/(0−vehicle-treated score))*100. Raw data were analyzed using a one-way ANOVA followed by Dunnett's post-tests. […] Compounds were administered by the intravenous route.

[5] = Inhibition of locomotion in mice (locomotion reduction assay, sedation); design: species or system ICR mice; conditions: mouse, in vivo, sc, administered subcutaneously, sedative effect
Method: To determine the potential sedative effect of test compounds, the extent of locomotion reduction after the administration of the test compound or vehicle control can be determined and compared with a specialized apparatus designed for this purpose (Opto-Varimex Activity Meter). At the start of each experiment, each mouse was weighed and examined to determine good health. […] The subcutaneous injection was performed in the back of the neck of the mouse, pinched in a “tent” to allow proper access for the syringe needle. After injection, each animal was placed individually in Plexiglas boxes (43 cm×43 cm) inside the Opto-Varimex Activity Meter apparatus. Before the animal was placed in the apparatus, a thin layer of SANI-CHIPS rodent bedding was placed on the bottom of the Plexiglas box to provide a comfortable environment. Each Opto-Varimex Activity Meter apparatus was then turned on and data acquisition begun by the ATM3 Auto-Track System. The data were processed and results expressed in the same way as described for the writhing assay data in Example 47.
Inhibition of acetic acid-induced writhing by a compound is an indication of an analgesic effect (also called an antinociceptive effect). Similarly, a reduction in locomotion caused by administration of the compound can be used as a measure of its general sedative effect.

[6] = biological target: CYP3A4 (Homo sapiens (Human), UniProt P08684); experiment: Cytochrome P450 CYP3A4 inhibition in human liver microsomes (midazolam); conditions: percent remaining CYP activity, 10 uM test compound, 20 minutes
[7] = biological target: CYP2C9 (Homo sapiens (Human), UniProt P11712); experiment: Cytochrome P450 CYP2C9 inhibition in human liver microsomes (tolbutamide); conditions: percent remaining CYP activity, 10 uM test compound, 15 minutes
[8] = biological target: CYP2C19 (Homo sapiens (Human), UniProt P33261); experiment: Cytochrome P450 CYP2C19 inhibition in human liver microsomes (omeprazole); conditions: percent remaining CYP activity, 10 uM test compound, 15 minutes
[9] = biological target: CYP2D6 (Homo sapiens (Human), UniProt P10635); experiment: Cytochrome P450 CYP2D6 inhibition in human liver microsomes (dextromethorphan); conditions: percent remaining CYP activity, 10 uM test compound, 15 minutes
[10] = Membrane permeability assay, Caco-2 TC7 monolayers, apical-to-basolateral (Cerep); conditions: human
[11] = biological target: mouse kappa opioid receptor (mKOR) (Mus musculus (Mouse), UniProt P33534); experiment: cell-based; conditions: read-out: mKOR Efficacy(%)
[12] = Pharmacokinetics in ICR mice after subcutaneous injection; conditions: mouse, in vivo, sc, 1 mg/kg, time for plasma concentration to fall by 50% after maximum
Method: A single bolus of the synthetic peptide amide compound was administered by subcutaneous injection to ICR mice (n=6, males, body wt 23-37 g, Charles River, Wilmington, Mass.) and plasma samples taken at 5, 10, 15, 20, 30 60, 90, 120, and 180 minutes post-injection.
Quantitation was performed against a calibration curve of the analyte in blank Cynomolgus monkey plasma using the same internal standard. Data analysis and the extraction of pharmacokinetic parameters were performed with the program PK Solutions 2.0 (Summit Research Services, Ashland, Ohio, USA).

[13] = Pharmacokinetics in cynomolgus monkeys after intravenous bolus; conditions: cynomolgus monkey, in vivo
[14] = biological target: human kappa opioid receptor (hKOR) (Homo sapiens (Human), UniProt P41145); experiment: cell-based; conditions: HEK293, read-out: hKOR Efficacy(%)

CC(C)NCC(O)COc1cccc2ccccc12 (stereo not drawn) [Propranolol, propranolol]
Papp A→B at 60 min, 10 uM [1]: 53.8 ×10⁻⁶ cm/s

CN1CC[C@]23c4c5ccc(O)c4O[C@H]2[C@@H](O)C=C[C@H]3[C@H]1C5 [Morphine, morphine, reference compound]
Mean palpebral opening (% Control) ([2]; Table VIII, 10 mg/ml, ten animals): 74.8 % Control

CC(CCc1ccccc1)NCC(O)c1ccc(O)c(C(N)=O)c1 (stereo not drawn) [Labetalol, labetalol]
Papp A→B at 60 min, 10 uM [1]: 9.9 ×10⁻⁶ cm/s

CNCCCC[C@@H](NC(=O)[C@@H](CC(C)C)NC(=O)[C@@H](Cc1ccccc1)NC(=O)[C@H](N)Cc1ccccc1)C(=O)N1CCC(N)(C(=O)O)CC1 [Compound (3), D-Phe-D-Phe-D-Leu-(ε-Me)D-Lys-[ω(4-aminopiperidine-4-carboxylic acid)]-OH]
Percent Activity of CYP1A [3]: 93.1% | ED50 in the acetic acid-induced writhing assay [4]: 0.052 mg/kg | ED50 [5]: 2.69 mg/kg | Mean palpebral opening (% Control) ([2]; Table VII, 10 mg/ml, five animals): 76.0 % Control | Percent Activity of CYP3A4 [6]: 94.3% | Percent Activity of CYP2C9 [7]: 97.4% | Percent Activity of CYP2C19 [8]: 103.2% | Percent Activity of CYP2D6 [9]: 99.5% | Papp A→B at 60 min, 10 uM [10]: < 0.02 ×10⁻⁶ cm/s

COc1ccc([C@@H]2Sc3ccccc3N(CCN(C)C)C(=O)[C@@H]2OC(C)=O)cc1 [Diltiazem, diltiazem, reference compound]
Mean palpebral opening (% Control) ([2]; Table VII, 10 mM, five animals): 74.6 % Control | Mean palpebral opening (% Control) ([2]; Table VIII, 10 mM, ten animals): 77.6 % Control

CNCCCC[C@@H](NC(=O)[C@@H](CC(C)C)NC(=O)[C@@H](Cc1ccccc1)NC(=O)[C@H](N)Cc1ccccc1)C(=O)N1CCC(N2CCC[C@H]2C(=O)O)CC1 [Compound (6), D-Phe-D-Phe-D-Leu-(ε-Me)D-Lys-[N-(4-piperidinyl)-L-proline]-OH]
Emax [11]: 89% | Percent Activity of CYP1A [3]: 89.5% | half-life [12]: 22 min | half-life [13]: 58.6 min | Percent Activity of CYP3A4 [6]: 93.6% | Percent Activity of CYP2C9 [7]: 92.1% | Percent Activity of CYP2C19 [8]: 97.2% | Percent Activity of CYP2D6 [9]: 93.9% | Papp A→B at 60 min, 10 uM [10]: < 0.02 ×10⁻⁶ cm/s

CN(C(=O)C(c1ccccc1)c1ccccc1)[C@H](CN1CC[C@H](O)C1)c1ccccc1 [Asimadoline, asimadoline, reference compound]
Papp A→B at 60 min, 10 uM [10]: 37.5 ×10⁻⁶ cm/s

CC(C)C[C@@H](NC(=O)[C@@H](Cc1ccccc1)NC(=O)[C@H](N)Cc1ccccc1)C(=O)N[C@H](CCCCNC(C)C)C(=O)N1CCC(N)(C(=O)O)CC1 [Compound (9), D-Phe-D-Phe-D-Leu-(8-iPr)D-Lys-[ω(4-aminopiperidine-4-carboxylic acid)]-OH]
Emax [14]: 100%

CNCCCC[C@@H](NC(=O)[C@@H](CC(C)C)NC(=O)[C@@H](Cc1ccccc1)NC(=O)[C@H](N)Cc1ccccc1)C(=O)N1CCCN(C(=N)N)CC1 [Compound (1), D-Phe-D-Phe-D-Leu-(ε-Me)D-Lys-[4-Amidinohomopiperazine amide]]
Percent Activity of CYP1A [3]: 89.8% | Percent Activity of CYP3A4 [6]: 92.5% | Percent Activity of CYP2C9 [7]: 93.2% | Percent Activity of CYP2C19 [8]: 98.5% | Percent Activity of CYP2D6 [9]: 96.0% | Papp A→B at 60 min, 10 uM [10]: < 0.1 ×10⁻⁶ cm/s

CC[C@]1(O)C[C@@H]2CN(CCc3c([nH]c4ccccc34)[C@@](C(=O)OC)(c3cc4c(cc3OC)N(C)[C@H]3[C@@](O)(C(=O)OC)[C@H](OC(C)=O)[C@]5(CC)C=CCN6CC[C@]43[C@@H]65)C2)C1 [Vinblastine, vinblastine]
Papp A→B at 60 min, 10 uM [1]: < 0.2 ×10⁻⁶ cm/s

CC(C)C[C@@H](NC(=O)[C@@H](Cc1ccccc1)NC(=O)[C@H](N)Cc1ccccc1)C(=O)N[C@H](CCN)C(=O)N1CCC(N2CCC[C@H]2C(=O)O)CC1 [Compound (12), D-Phe-D-Phe-D-Leu-D-Dbu4N-(4-piperidinyl)-L-prolinel-OH] (H-[dF][dF][dL][dDab]-{Piperidinyl(4-(1-Pro-OH))})
Emax [14]: 100%
